Reference: patent US20250230193A1, “CYCLIC COMPOUND HAVING SELECTIVE KRAS INHIBITORY EFFECT ON HRAS AND NRAS” (CHUGAI SEIYAKU KABUSHIKI KAISHA, priority 2022, published 2025)
Where a SMILES comes first, the peptide text is derived from it. Bridges are numbered along the chain shown (N, C = ends). [ ]: non-standard residue; d: D form. The star is where a group is joined. hPhe(3-Cl-4-CF3) = N[C@@H](CCc1ccc(C(F)(F)F)c(Cl)c1)C(=O)O; NPrPhe(4-CF3) = CCCN[C@@H](Cc1ccc(C(F)(F)F)cc1)C(=O)O; NEtPhe(4-Me) = CCN[C@@H](Cc1ccc(C)cc1)C(=O)O; NMeGly(cPent) = CN[C@H](C(=O)O)C1CCCC1; NMeD = CN[C@@H](CC(=O)O)C(=O)O; NMeL = CN[C@@H](CC(C)C)C(=O)O; Morpholide = C1CN(*)CCO1; NMeA = CN[C@@H](C)C(=O)O; Ac5c = NC1(C(=O)O)CCCC1; Aze = O=C(O)[C@@H]1CCN1; Ac4c = NC1(C(=O)O)CCC1; Sar = CNCC(=O)O

What was measured:
[1] = biological target: GDP-bound NRAS wild-type protein (Homo sapiens, UniProt P01111); test: Binding to NRAS by surface plasmon resonance (SPR), Single Cycle Kinetics; details: SPR
GDP-bound NRAS wild-type protein, sequence (P01111 whole entry): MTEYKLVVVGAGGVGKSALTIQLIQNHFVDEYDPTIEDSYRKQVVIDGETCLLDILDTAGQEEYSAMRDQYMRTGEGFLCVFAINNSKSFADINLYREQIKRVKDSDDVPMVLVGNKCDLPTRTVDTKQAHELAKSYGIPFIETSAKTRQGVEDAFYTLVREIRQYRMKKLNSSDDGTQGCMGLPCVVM

[2] = biological target: GDP-bound HRAS wild-type protein (Homo sapiens, UniProt P01112); test: Binding to HRAS by surface plasmon resonance (SPR), Single Cycle Kinetics; details: SPR
GDP-bound HRAS wild-type protein, sequence (P01112 whole entry): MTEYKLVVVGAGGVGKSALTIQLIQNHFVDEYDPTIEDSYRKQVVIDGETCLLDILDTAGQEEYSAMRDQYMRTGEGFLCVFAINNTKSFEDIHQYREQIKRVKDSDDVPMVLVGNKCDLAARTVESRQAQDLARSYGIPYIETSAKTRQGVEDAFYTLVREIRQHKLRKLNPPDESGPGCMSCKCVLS

[3] = KD ratio, GDP-bound NRAS wild-type vs GDP-bound KRAS wild-type
[4] = KD ratio, GDP-bound HRAS wild-type vs GDP-bound KRAS wild-type

In the case of CC[C@H](C)[C@@H]1NC(=O)[C@H](CC(C)C)N(C)C(=O)C[C@@H](C(=O)N2CCOCC2)N(C)C(=O)[C@H](C2CCCC2)N(C)C(=O)C2(CCCC2)NC(=O)[C@@H]2CCCN2C(=O)[C@H](CCc2ccc(C(F)(F)F)c(Cl)c2)NC(=O)CN(C)C(=O)[C@H](Cc2ccccc2)N2CC=CC[C@@H](C2=O)N(C)C(=O)CN(C)C1=O [PP0528], the “NRAS/KRAS (ratio of KD value with respect to GDP-bound NRAS wild-type protein to KD value with respect to KRAS)” value [1] is reported as “C (A compound having a KD ratio of 0.1 or more and less than 3 is denoted as C)” and the “HRAS/KRAS (ratio of KD value with respect to GDP-bound HRAS wild-type protein to KD value with respect to KRAS)” value [2] is reported as “C (A compound having a KD ratio of 0.1 or more and less than 3 is denoted as C)”.

With CC[C@H](C)[C@@H]1NC(=O)[C@H](CC)N(C)C(=O)C[C@@H](C(=O)N(C)C)N(C)C(=O)[C@H](C2CCCC2)N(C)C(=O)C2(CCC2)N(C)C(=O)[C@@H]2CCCN2C(=O)[C@H](CCc2cc(F)c(C(F)(F)F)c(F)c2)NC(=O)CN(C)C(=O)[C@H](Cc2ccc(C)cc2)N2CC/C=C\C[C@@H](C2=O)N(C)C(=O)[C@@H]2CCCN2C1=O [PP1786] the “NRAS/KRAS (ratio of KD value for NRAS to KD value for KRAS)” value [1, 3] was “A (a compound having 10 or more and less than 20 is denoted as A)” and the “HRAS/KRAS (ratio of KD value for HRAS to KD value for KRAS)” value [2, 4] was “B (a compound having 3 or more and less than 10 is denoted as B)”.

CCO[C@@H]1C[C@H]2C(=O)NC3(CCC3)C(=O)N(C)[C@@H](C3CCCC3)C(=O)N(C)[C@H](C(=O)N3CCOCC3)CC(=O)N(C)[C@@H](CC(C)C)C(=O)N[C@@H]([C@@H](C)CC)C(=O)N3CC[C@H]3C(=O)N(C)[C@H]3C[C@@H](C)CCN(C3=O)[C@@H](Cc3ccc(C(F)(F)F)cc3)C(=O)N(C)CC(=O)N[C@@H](CCc3cc(F)c(C(F)(F)F)c(F)c3)C(=O)N2C1 [PP1026] was tested, and the “NRAS/KRAS (ratio of KD value with respect to NRAS to KD value with respect to KRAS)” value [1, 3] was “B (a compound having 3 or more and less than 10 is denoted as B)” and the “HRAS/KRAS (ratio of KD value with respect to HRAS to KD value with respect to KRAS)” value [2, 4] was “B (a compound having 3 or more and less than 10 is denoted as B)”.

With CC[C@H](C)[C@@H]1NC(=O)[C@H](CC(C)C)N(C)C(=O)C[C@@H](C(=O)N2CCOCC2)N(C)C(=O)[C@H](CC(C)C)N(C)C(=O)C2(CCCC2)NC(=O)[C@@H]2CCCN2C(=O)[C@H](CCc2ccc(C(F)(F)F)c(Cl)c2)NC(=O)CN(C)C(=O)[C@H](Cc2ccc(C)cc2)N(CC)C(=O)[C@@H]2CCN2C(=O)[C@H](C)N(C)C1=O [PP0016] ([NMeL]I[NMeA][Aze][NEtPhe(4-Me)][Sar][hPhe(3-Cl-4-CF3)]P[Ac5c][NMeL][NMeD]-Morpholide; lactam N-11) the “NRAS/KRAS (ratio of KD for GDP-bound NRAS wild-type to KD for KRAS)” value [1] was “C (A compound having a KD ratio of 0.1 or more and less than 3 is denoted as C)” and the “HRAS/KRAS (ratio of KD for GDP-bound HRAS wild-type to KD for KRAS)” value [2] was “C (A compound having a KD ratio of 0.1 or more and less than 3 is denoted as C)”.

For CCC[C@H]1C(=O)N[C@@H](C2CCCC2)C(=O)N(C)CC(=O)N(C)[C@H]2C/C=C\CCN(C2=O)[C@@H](Cc2ccc(C)cc2)C(=O)N(C)CC(=O)N[C@@H](CCc2ccc(C(F)(F)F)c(Cl)c2)C(=O)N2C[C@H](OCC)C[C@H]2C(=O)NC2(CC(C)(C)C2)C(=O)N(C)[C@@H](CC(C)C)C(=O)N(C)[C@H](C(=O)N(C)C)CC(=O)N1C [PP2190], the “NRAS/KRAS (ratio of KD value with respect to NRAS to KD value with respect to KRAS)” value ([1]; GDP-bound NRAS wild-type vs GDP-bound KRAS wild-type) was “A (a compound having 10 or more and less than 20 is denoted as A)” and the “HRAS/KRAS (ratio of KD value with respect to HRAS to KD value with respect to KRAS)” value ([2]; GDP-bound HRAS wild-type vs GDP-bound KRAS wild-type) was “A (a compound having 10 or more and less than 20 is denoted as A)”.

For CCCN1C(=O)CN(C)C(=O)CN(C)C(=O)[C@H]([C@@H](C)CC)NC(=O)[C@H](CC(C)C)N(C)C(=O)C[C@@H](C(=O)N(C)C)NC(=O)[C@H](C2CCCC2)N(C)C(=O)C2(CCCC2)NC(=O)[C@@H]2CCCN2C(=O)[C@H](CCc2ccc(C(F)(F)F)c(Cl)c2)NC(=O)CN(C)C(=O)[C@@H]1Cc1ccc(C(F)(F)F)cc1 [PP0355] ([NMeL]I[Sar][Sar][NPrPhe(4-CF3)][Sar][hPhe(3-Cl-4-CF3)]P[Ac5c][NMeGly(cPent)]D-NMe2; lactam N-11), the “NRAS/KRAS (ratio of KD for GDP-bound NRAS wild-type to KD for KRAS)” value [1] was “B (a compound having 3 or more and less than 10 is denoted as B)” and the “HRAS/KRAS (ratio of KD for GDP-bound HRAS wild-type to KD for KRAS)” value [2] was “B (a compound having 3 or more and less than 10 is denoted as B)”.

CCCN1C(=O)CN(C)C(=O)CN(C)C(=O)[C@H]([C@@H](C)CC)NC(=O)[C@H](CC(C)C)N(C)C(=O)C[C@@H](C(=O)N2CCOCC2)NC(=O)[C@H](C2CCCC2)N(C)C(=O)C2(CCC2)NC(=O)[C@@H]2CCCN2C(=O)[C@H](CCc2ccc(C(F)(F)F)c(Cl)c2)NC(=O)CN(C)C(=O)[C@@H]1Cc1ccc(C(F)(F)F)cc1 [PP0320] ([NMeL]I[Sar][Sar][NPrPhe(4-CF3)][Sar][hPhe(3-Cl-4-CF3)]P[Ac4c][NMeGly(cPent)]D-Morpholide; lactam N-11) was tested, and the “NRAS/KRAS (ratio of KD for GDP-bound NRAS wild-type to KD for KRAS)” value [1] was “B (a compound having 3 or more and less than 10 is denoted as B)” and the “HRAS/KRAS (ratio of KD for GDP-bound HRAS wild-type to KD for KRAS)” value [2] was “B (a compound having 3 or more and less than 10 is denoted as B)”.

With CCC[C@H]1C(=O)N[C@@H]([C@@H](C)CC)C(=O)N2CCC[C@H]2C(=O)N(C)[C@H]2C/C=C\CCN(C2=O)[C@@H](Cc2ccc(C(F)(F)F)cc2)C(=O)N(C)CC(=O)N[C@@H](CCc2cc(F)c(C(F)(F)F)c(F)c2)C(=O)N2C[C@H](OCC)C[C@H]2C(=O)N(C)C2(CCC2)C(=O)N(C)[C@@H](C2CCCC2)C(=O)N(C)[C@H](C(=O)N2CCCC2)CC(=O)N1C [PP3116] the “NRAS/KRAS (ratio of KD value with respect to GDP-bound NRAS wild-type protein to KD value with respect to KRAS)” value ([1]; GDP-bound wild-type proteins) was “A (a compound having 10 or more and less than 20 is denoted as A)” and the “HRAS/KRAS (ratio of KD value with respect to GDP-bound HRAS wild-type protein to KD value with respect to KRAS)” value ([2]; GDP-bound wild-type proteins) was “A (a compound having 10 or more and less than 20 is denoted as A)”.
